Measured values reported in patent US11787850B2, “Peptidic TGF-beta antagonists” (priority 2015, dated 2023).

Assays:
[1] = test system: TGF-β-induced EMT in HaCaT cells; experiment: Immunofluorescence of F-actin and E-cadherin in HaCaT cells with pathway inhibitors; type: cell-based, human; conditions: 0.5 μM SB431542, 1 μM SB203580, 10 μM U0126
Procedure: HaCaT cells transfected with control or CD109 siRNA were treated for 36 hrs with 100 pM TGF-β1, in the presence or absence of 0.5 μM SB431542, 1 μM SB203580 and/or 10 μM U0126. Cells were fixed and stained for F-actin, E-cadherin and with DAPI. […] (FIG. 16B) Densitometry of F-actin staining (mean of n=3 independent experiments±SEM; *P<0.05).
Cells were treated with 0-100 pM TGF-β1, in the presence or absence of 10 μM U0126 (Cell signaling Technologies), 1 μM SB203580, 0.5 μM SB431542 (both from Ascent) for 36-40 hrs. Cells were fixed with 4% paraformaldehyde for 10 min at 37° C. and non-specific sites were blocked with 10% NGS, 0.1% Triton X-100 in PBS. E-cadherin was detected using a FITC-conjugated anti-E-cadherin antibody (BD Biosciences), followed by an AlexaFluor488™-conjugated anti-FITC antibody (Molecular Probes). F-actin was detected using Rhodamin-conjugated phalloidin (Cytoskeleton, Denvers, Colo.) and nuclei were stained with DAPI (Sigma Aldrich). Images were acquired with an Olympus BX60 fluorescent microscope coupled to a QColor3™ camera (Olympus) using Image ProPlus™ 6.0 software.

[2] = test system: TGF-β-induced fibronectin and Slug expression in HaCaT cells; experiment: Western blot for fibronectin and Slug in HaCaT cells with pathway inhibitors; type: cell-based, human
[3] = test system: TGF-β-induced migration of squamous cell carcinoma (A431) cells; experiment: Scratch (wound closure) migration assay, A431 cells; type: cell-based; conditions: 10 nM peptide, 100 pM TGF-β1, 24 hours (FIG. 10)
Procedure: FIG. 10A and FIG. 10B illustrate that peptides B, E and X-1 inhibit TGF-β-induced cellular migration of A431 cells in vitro. Results are shown prior to treatment (0 hr, top panels) and after treatment (24 hr, bottom panels) for each of the peptides used. (See FIG. 2 and Table 1 for the amino acid sequence identity of the peptides).
A431 cells were grown to 80-90% confluence and serum-starved overnight. The next day, cells were scratched with a plastic pipette tip (time 0 hour) and then left untreated or treated for 24 hours with 100 pM TGF-β1 alone or in the presence of P16 as indicated. (FIG. 27A) Digital images were captured at 0 h and 24 h using an EVOS XL Core microscope. (FIG. 27B) Micrographs were subsequently quantitated to determine the percentage of the wound area that had closed following 24 hours in the presence or absence of P16, as indicated.
Cells were scratched with a pipette tip and treated without or with 100 pM TGF-b1 alone or in the presence of 10 nM Peptide A or Peptide A1 (C31S mutant). Pictures were taken at 0 and 24 hrs. Peptide A but not Peptide A1 inhibits TGF-b-induced migration in A431 cells. Peptide A contains monomeric and dimeric forms whereas Peptide A1 contains a C31S mutation to prevent intermolecular disulfide bond formation so that it forms monomers only.
(§1) Squamous cell carcinoma (A431) or breast cancer (MDA-MB-231) cells were grown to 80-90% confluence and serum-starved overnight. The next day, cells were scratched with a plastic pipette tip (time 0 hour) and then left untreated or treated for 24 hours with 100 pM TGF-β1 alone or in the presence of 10 nM peptide B (100 aa), E (67 aa), or X1 (P28, 28 aa). Digital images were captured at 0 h and 24 h (20× magnification) using an EVOS XL Core microscope.

[4] = test system: TGF-β-induced migration of breast cancer (MDA-MB-231) cells; experiment: Scratch migration assay, MDA-MB-231 cells; type: cell-based; conditions: 10 nM peptide, 100 pM TGF-β1, 24 hours (FIG. 11)
Procedure: FIG. 11A and FIG. 11B illustrate that peptides B, E and X-1 inhibit TGF-β-induced cellular migration of MDA-MB-231 cells in vitro. Results are shown prior to treatment (0 hr, top panels) and after treatment (24 hr, bottom panels) for each of the peptides used.
as §1

**Q.** What does the source list for `C[S+]([O-])c1ccc(-c2nc(-c3ccncc3)c(-c3ccc(F)cc3)[nH]2)cc1` (centres unmarked) [SB203580]?
**A.** effect mediated by CD109 siRNA transfection on actin stress fibers appearance and relocalization of E-cadherin ([1]; 100 pM TGF-β1, 36 hrs): reduces (but does not abrogate); effect on EMT markers in the absence of TGF-β ([1]; data not shown): no effect; fibronectin production ([2]; CD109 siRNA HaCaT cells, 100 pM TGF-β1, 16 hrs, 0.5 μM SB431542, 1 μM SB203580, 10 μM U0126): reduced; Slug expression ([2]; control siRNA and CD109 siRNA HaCaT cells, absence or presence of TGF-β, 1 μM SB203580): increases

B1: B: CD109-based peptide (100 aa), SEQ ID NO: 19 (protein)
chain: TMENVVHELELYNTGYYLGMFMNSFAVFQECGLWVLTDANLTKDYIDGVYDNAEYAERFMEENEGHIVDIHDFSLGSSPHVRKHFPETWIWLDTNMGSRIYQEFEVT
modifications: Peptide B
**Q.** With B1 as the molecule, how does the “inhibition of TGF-β-induced cellular migration of A431 cells” value [3] read?
**A.** inhibit

**Q.** What about the “inhibition of TGF-β-induced cellular migration of MDA-MB-231 cells” value [4] of the same molecule?
**A.** inhibit

B2: E: CD109-based peptide (67 aa), SEQ ID NO: 20 (protein)
chain: LTKDYIDGVYDNAEYAERFMEENEGHIVDIHDFSLGSSPHVRKHFPETWIWLDTNMGSRIYQEFEVTV
modifications: Peptide E
**Q.** Which results are given for B2?
**A.** inhibition of TGF-β-induced cellular migration of A431 cells [3]: inhibit; inhibition of TGF-β-induced cellular migration of MDA-MB-231 cells [4]: inhibit
